According to patent US9615577B2, “Herbicidally active cyclic dione compounds, or derivatives therefor, substituted by a phenyl which has an alkynyl-containing substituent” (Syngenta Limited, priority 2012, dated 2017):

Columns and labels:
Type in all cases: in vivo
[1] = tested on: Abutilon theophasti Medik. (ABUTH); assay: Test 1A glasshouse assay for herbicidal activity, pre-emergence; conditions: 312 h, 250 g/ha, evaluated after 13 days, read-out: percentage phytotoxicity ABUTH
Procedure, shortened: (§1)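 Pots sprayed 1 day (pre-emergence) or 8 days (post-emergence) after sowing with compound in acetone/water (50:50) containing 0.5% Tween 20. Glasshouse at 24/16 °C day/night, 14 h light, 65% humidity; visual phytotoxicity scored after 13 days on 0–100 scale (100 = total damage).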

[2] = tested on: Abutilon theophasti Medik. (ABUTH); assay: Test 1A glasshouse assay for herbicidal activity, post-emergence; conditions: 312 h, evaluated after 13 days, read-out: percentage phytotoxicity ABUTH
Procedure, shortened: as §1

[3] = tested on: Amaranthus retroflexus (AMARE); assay: as above; conditions: 312 h, evaluated after 13 days, read-out: percentage phytotoxicity AMARE
Procedure, shortened: as §1

[4] = tested on: Echinochloa crus-galli (ECHCG); assay: as above; conditions: 312 h, evaluated after 13 days, read-out: percentage phytotoxicity ECHCG
Procedure, shortened: as §1

[5] = tested on: Alopecurus myosuroides (ALOMY); assay: as above; conditions: 312 h, evaluated after 13 days, read-out: percentage phytotoxicity ALOMY
Procedure, shortened: as §1

[6] = tested on: Brachiaria plantaginea (BRAPL); assay: Test 1B glasshouse assay for herbicidal activity, post-emergence; conditions: Urochloa plantaginea
Procedure, shortened: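 Seeds sown in standard soil; sprayed after 1 day (pre-emergence) or ~12 days (post-emergence) with active ingredient from a 50 g/liter IF50 formulation diluted in 0.2% v/v X-77 aqueous adjuvant. Glasshouse at 24/18° C. day/night, 16 h light, 65% humidity; visual % phytotoxicity scored 20 DAA (pre) or 15 DAA (post).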

[7] = tested on: Beta vulgaris (BEAVA, sugar beet); assay: as above; conditions: 360 h; for plant injury at 30 g/ha: 30 g/ha application rate
Protocol: (§2) Seeds of a variety of monocotyledonous and dicotyledonous test plants are sown in standard soil in pots. The plants are cultivated for one day (for pre-emergence) or for about 12 days (range=10-13 days) (for post-emergence) under controlled conditions in a glasshouse (warm climate species at 24/18° C., cool climate species at 20/16° C., both at day/night; 16 hours light; 65% humidity).
(§3) An “instant formulation”, known as the “IF50”, containing 50 g/liter (i.e. 5% w/v) of the “technical” (i.e. unformulated) active ingredient is prepared by dissolving the active ingredient in a mixture of organic solvents and emulsifier, details of which are provided in the Table below. This IF50 is then mixed with a small, variable amount of acetone to aid dissolution, before addition of a 0.2% v/v aqueous solution of the adjuvant X-77 (which is a mixture of alkyl aryl polyoxyethylene glycols and free fatty acids in isopropanol, CAS Registry number 11097-66-8), as the aqueous diluent, to form an aqueous spray solution which contains a predetermined concentration of the active ingredient (which varies depending on the application rate of the active ingredient to the plants) and 0.2% v/v of the adjuvant X-77. This aqueous spray solution is then sprayed onto the plants, after one day's cultivation (for pre-emergence) or after about 12 days' cultivation (for post-emergence).
(§4) The test plants are then grown on, in a glasshouse (greenhouse) under controlled conditions (at either 24/18° C. or 20/16° C. (day/night) as mentioned above; 16 hours light; 65% humidity) and are watered twice daily. Either 15 days after application of the herbicide (15 DAA) (for post-emergence), or 20 days after application of the herbicide (20 DAA) (for pre-emergence), the test plants are evaluated visually, and an assessed percentage phytotoxicity score is given for each herbicidal application on each plant species (where 100%=total damage to plant; 0%=no damage to plant).
(§5) Cool climate crop plants: Triticum aestivum (TRZAW, winter wheat), Brassica napus (BRSNN, rape, also called oilseed rape or rapeseed), Beta vulgaris (BEAVA, sugar beet).

[8] = tested on: Triticum aestivum (TRZAW, winter wheat); assay: as above; conditions: 360 h; for plant injury at 30 g/ha: 30 g/ha application rate
Protocol: as §2, §3, §4, §5

[9] = tested on: Brassica napus (BRSNN, rape); assay: as above; conditions: 360 h; for plant injury at 30 g/ha: 30 g/ha application rate
Protocol: as §2, §3, §4, §5

[10] = tested on: Digitaria sanguinalis (DIGSA); assay: Test 1B glasshouse assay for herbicidal activity, pre-emergence; conditions: 480 h, 20 DAA, read-out: percentage phytotoxicity DIGSA
Protocol: as §2, §3, §4
(§6) Warm climate (“warm season”) grassy monocotyledonous weeds: Setaria faberi (SETFA), SORVU (Sorghum bicolor (L.) Moench ssp. Bicolor, or Sorghum vulgare Pers.), Digitaria sanguinalis (DIGSA), Echinochloa crus-galli (ECHCG), and Brachiaria plantaginea (BRAPL).

[11] = tested on: Echinochloa crus-galli (ECHCG); assay: as above; conditions: 480 h, 20 DAA, read-out: percentage phytotoxicity ECHCG
Protocol: as §2, §3, §4, §6

[12] = tested on: SORVU (Sorghum bicolor (L.) Moench ssp. Bicolor, or Sorghum vulgare Pers.); assay: as above; conditions: 480 h, 20 DAA, read-out: percentage phytotoxicity SORVU
Protocol: as §2, §3, §4, §6

Setaria faberi (SETFA) = assay: as above; conditions: 480 h, 20 DAA, read-out: percentage phytotoxicity SETFA
Protocol: as §2, §3, §4, §6

[13] = tested on: Beta vulgaris (BEAVA, sugar beet); assay: as above; conditions: 480 h, 20 DAA, read-out: percentage phytotoxicity BEAVA
Protocol: as §2, §3, §4, §5

[14] = tested on: Triticum aestivum (TRZAW, winter wheat); assay: as above; conditions: 480 h, 20 DAA, read-out: percentage phytotoxicity TRZAW
Protocol: as §2, §3, §4, §5

[15] = tested on: Brassica napus (BRSNN, rape); assay: as above; conditions: 480 h, 20 DAA, read-out: percentage phytotoxicity BRSNN
Protocol: as §2, §3, §4, §5

SMILES	pest or weed control at 250 g/ha [1]	pest or weed control at 30 g/ha [2]	pest or weed control at 250 g/ha [2]	pest or weed control at 30 g/ha [3]	pest or weed control at 250 g/ha [3]	pest or weed control at 30 g/ha [4]	pest or weed control at 250 g/ha [4]	pest or weed control at 30 g/ha [5]	pest or weed control at 250 g/ha [5]	plant injury at 30 g/ha [7]	plant injury at 30 g/ha [8]	plant injury at 30 g/ha [9]	further results
CC#Cc1cc(Cl)c(C2C(=O)CC3(CCOCC3)CC2=O)c(OC)c1 [Compound A-20, 9-(2-Chloro-6-methoxy-4-prop-1-ynyl-phenyl)-3-oxa-spiro[5.5]undecane-8,10-dione]	80%	80%	80%	80%	80%	100%	100%	100%	100%				pest or weed control at 8 g/ha ([2]; 8 g/ha): 50%; pest or weed control at 8 g/ha ([3]; 8 g/ha): 10%; pest or weed control at 8 g/ha ([4]; 8 g/ha): 100%; pest or weed control at 8 g/ha ([5]; 8 g/ha): 90%
Cc1cc(C#CCl)cc(C)c1C1C(=O)CC(CC2CCOCC2)CC1=O (stereo not drawn) [Compound A-8]					40%		100%		80%	30%	50%	70%	pest or weed control at 30 g/ha ([6]; 30 g/ha application rate): 90%
CC#Cc1ccc(C2C(=O)C3CCC(C3)C2=O)c(C)c1 (single isomer, unassigned) [Compound A-2]					0%		100%		90%				pest or weed control at 500 g/ha ([10]; 500 g/ha): 100%; pest or weed control at 500 g/ha ([11]; 500 g/ha): 100%; pest or weed control at 500 g/ha ([12]; 500 g/ha): 80%; pest or weed control at 500 g/ha (Setaria faberi (SETFA); 500 g/ha): 90%; pest or weed control at 60 g/ha ([6]; 60 g/ha application rate): 100%; plant injury at 60 g/ha ([7]; 60 g/ha application rate): 10%; plant injury at 60 g/ha ([8]; 60 g/ha application rate): 80%; plant injury at 60 g/ha ([9]; 60 g/ha application rate): 70%; plant injury at 500 g/ha ([13]; 500 g/ha): 0%; plant injury at 500 g/ha ([14]; 500 g/ha): 60%; plant injury at 500 g/ha ([15]; 500 g/ha): 40%
CC#Cc1cc(Cl)c(C2C(=O)C3CCC(C)(C2=O)C3(C)C)c(OC)c1 (stereo not drawn) [Compound A-17]	70%		10%		0%		100%		90%				pest or weed control at 250 g/ha [10]: 100%; pest or weed control at 250 g/ha [11]: 100%; pest or weed control at 250 g/ha [12]: 50%; pest or weed control at 250 g/ha (Setaria faberi (SETFA)): 50%; plant injury at 250 g/ha ([7]; 250 g/ha application rate): 10%; plant injury at 250 g/ha ([8]; 250 g/ha application rate): 10%; plant injury at 250 g/ha ([9]; 250 g/ha application rate): 10%; plant injury at 250 g/ha [13]: 0%; plant injury at 250 g/ha [14]: 0%; plant injury at 250 g/ha [15]: 0%
CC#Cc1cc(Cl)c(C2C(=O)C3CCC(C3)C2=O)c(OCC)c1 (stereo not drawn) [Compound A-16]	70%	60%	60%	30%	70%	100%	100%	90%	100%	0%	10%	10%	pest or weed control at 250 g/ha [10]: 100%; pest or weed control at 250 g/ha [11]: 80%; pest or weed control at 250 g/ha [12]: 80%; pest or weed control at 250 g/ha (Setaria faberi (SETFA)): 90%; plant injury at 125 g/ha ([7]; 125 g/ha application rate): 0%; plant injury at 125 g/ha ([8]; 125 g/ha application rate): 60%; plant injury at 125 g/ha ([9]; 125 g/ha application rate): 50%; plant injury at 250 g/ha [13]: 0%; plant injury at 250 g/ha [14]: 0%; plant injury at 250 g/ha [15]: 0%
CC#Cc1cc(C)c(C2C(=O)CC(CCSC)CC2=O)c(C)c1 (stereo not drawn) [Compound A-21, 2-(2,6-Dimethyl-4-prop-1-ynyl-phenyl)-5-(2-methylsulfanyl-ethyl)cyclohexane-1,3-dione]	10%	10%	60%	80%	20%	80%	100%	50%	90%				
CC#Cc1cc(C)c(C2C(=O)CC(CC3CCOCC3)CC2=O)c(C)c1 (stereo not drawn) [Compound A-9]					30%		100%		100%	0%	60%	50%	pest or weed control at 125 g/ha ([10]; 125 g/ha): 100%; pest or weed control at 125 g/ha ([11]; 125 g/ha): 90%; pest or weed control at 125 g/ha ([12]; 125 g/ha): 90%; pest or weed control at 125 g/ha (Setaria faberi (SETFA); 125 g/ha): 100%; plant injury at 125 g/ha ([13]; 125 g/ha): 20%; plant injury at 125 g/ha ([14]; 125 g/ha): 20%; plant injury at 125 g/ha ([15]; 125 g/ha): 80%
